Reference: US20190282600A1, “COMBINATION THERAPIES TARGETING TERT DEPENDENCY FOR CANCER THERAPY” (The Wistar Institute of Anatomy and Biology, priority 2018, published 2019)

Tests used:
[1] = system: non-transformed primary human fibroblasts; assay: Cell viability, Alamar Blue assay; assay type: cell-based; details: telomerase negative cells, 7 days
Protocol: (§1) FIGS. 2a to 2c show NRAS^mut melanoma cells (FIG. 2a), BRAF-V600E/NRAS mutant cells derived from melanoma patients resistant to BRAF/MEK inhibitors (FIG. 2b), or non-transformed melanocytes and fibroblasts (FIG. 2c) were treated with 6-thio-dG for 7 days. Cell viability was measured by Alamar Blue assay and calculated relative to DMSO-treated cells. […] Cell death was assessed by PSVUe staining. Percent of apoptotic cells is shown. […] Mean TRF length expressed as kilobase pairs is indicated at the bottom. […] FIG. 2g provides a bar graph showing that DNA damage was assessed by γH2AX staining. Data represent average from three independent experiments ±SEM. *p<0.05; **p<0.01; ***p<0.005 in unpaired Student's t-test. […] Tumor volume was measured and average tumor volume (n=4) ±SEM was plotted vs. time.
(§2) Cells were seeded in 96-well plates and treated with drugs. After 6 days, cell viability was assessed following 6h incubation with […] Alamar Blue (ThermoFisherScientific, Philadelphia, Pa.) by measuring fluorescence using an EnVision Xcite Multilabel plate reader (Perkin Elmer, Waltham, Mass.). Cell death was determined by flow cytometry using PSVue-643 (Molecular Targeting Technologies) or Annexin V (640919, Biolegend, San Diego, Calif.) and Propidium Iodide (Sigma) staining. Samples were analyzed using a BD LSRII flow cytometer (BD Biosciences, San Jose, Calif.).

[2] = system: non-transformed primary human melanocytes; assay: Cell viability, Alamar Blue assay; assay type: cell-based; details: telomerase negative cells, 7 days
Protocol: as §1, §2

[3] = system: NRAS mutant melanoma cells; assay: Telomere length assay (TRF Southern blotting); assay type: cell-based, Human; details: 1 μM 6-thio-dG for 14 days
Protocol: (§3) FIGS. 2a to 2c show NRAS^mut melanoma cells (FIG. 2a), BRAF-V600E/NRAS mutant cells derived from melanoma patients resistant to BRAF/MEK inhibitors (FIG. 2b), or non-transformed melanocytes and fibroblasts (FIG. 2c) were treated with 6-thio-dG for 7 days. Cell viability was measured by Alamar Blue assay and calculated relative to DMSO-treated cells. […] Cell death was assessed by PSVUe staining. Percent of apoptotic cells is shown. […] Mean TRF length expressed as kilobase pairs is indicated at the bottom. […] FIG. 2g provides a bar graph showing that DNA damage was assessed by γH2AX staining. Data represent average from three independent experiments ±SEM. *p<0.05; **p<0.01; ***p<0.005 in unpaired Student's t-test. As presented in FIG. 2h, mice bearing established WM3000 or M93-047 NRAS^mut tumors were treated with vehicle control or 6-thio-dG (2.5 mg/kg i.p; q.d). Tumor volume was measured and average tumor volume (n=4) ±SEM was plotted vs. time.
Genomic DNA was prepared using Wizard genomic DNA purification kit (Promega) following manufacturer's instruction. […] The images were analyzed with Phosphorimager, visualized by Typhoon 9410 Imager (GE Healthcare), and processed with ImageQuant 5.2 software (Molecular Dynamics).

[4] = system: NRAS mutant melanoma cells; assay: Global DNA damage, γH2AX staining by flow cytometry; assay type: cell-based, Human; details: 1 μM 6-thio-dG for 7 days
Protocol: as §3
For assessment of global DNA damage cells were fixed and permeabilized with BD CytoFix/Perm reagent following the manufacturer's instructions and incubated with γH2AX antibody (Cell Signaling Technology, Danvers, Mass.) for 1 h at room temperature followed by 1 h incubation with Alexa-647 anti-Rabbit secondary antibody. Mean fluorescence staining was quantified by flow cytometry. […]

With `Nc1nc2c(ncn2[C@H]2C[C@H](O)[C@@H](CO)O2)c(=S)[nH]1` [6-thio-dG, 6-thio-2′-deoxyguanosine] the cell viability [1] was “did not significantly affect”, the cell viability [2] was “did not significantly affect” and the “telomere length (mean TRF)” value [3] was “without evidence for significant telomere shortening”. For the same molecule, the γH2AX [4] was “increased levels”.
